# Measurements published in patent US20080292736A1, “Bioavailability enhancing activity of carum carvi extracts and fractions thereof” (COUNCIL OF SCIENTIFIC AND INDUSTRIAL RESEARCH, priority 2001, published 2008).
# Read-outs that look alike come from different tables or passages of the source.
# How the values were obtained:
# [1] = drug with piperine; background statement; cited from earlier work
# [2] = Enhancement of bioavailability of drugs given to rats with bioenhancers (plasma drug level by HPLC); conditions: for % Enhancement in bioavailability, BE from Carum carvi: drug with Carum carvi bioenhancer (aqueous or 50% alcoholic extract 30 mg/kg or Fraction No. 1 15 mg/kg), drug dose mg/kg
# [3] = rat, in vivo; for % Enhancement in bioavailability, Carum carvi (Cc) Extr.: 30 mg/kg; for % Enhancement in bioavailability, BE from Zingiber officinale: 35 mg/kg
Compound,"% Enhancement in bioavailability, Carum carvi + Zingiber officinale, Extr. (Cc) [3]","% Enhancement in bioavailability, Carum carvi + Zingiber officinale, Frac 1. (Cc) [3]","% Enhancement in bioavailability, Carum carvi + piperine, Extr. (Cc) [3]","% Enhancement in bioavailability, Carum carvi + piperine, Frac 1. (Cc) [3]","% Enhancement in bioavailability, Carum carvi (Cc) Extr. [3]","% Enhancement in bioavailability, BE from Zingiber officinale [3]","% Enhancement in bioavailability, BE from Carum carvi [3]","% Enhancement in bioavailability, Carum carvi + Piperine [3]","% Enhancement in bioavailability, Carum carvi + Zingiber officinale [3]",other results
CCCNC(=O)NS(=O)(=O)c1ccc(Cl)cc1 [chlorpropamide],–,–,–,–,–,–,–,–,–,bioenhancing effect of piperine on the drug [1]: does not enhance
CO[C@H]1/C=C/O[C@@]2(C)Oc3c(C)c(O)c4c(O)c(c(/C=N/N5CCN(C)CC5)c(O)c4c3C2=O)NC(=O)/C(C)=C\C=C\[C@H](C)[C@H](O)[C@@H](C)[C@@H](O)[C@@H](C)[C@H](OC(C)=O)[C@@H]1C [Rifampicin],–,–,–,–,–,–,–,–,–,"% Enhancement in bioavailability, BE from Carum carvi [2]: 110%; % Enhancement in bioavailability, Carum carvi + Zingiber officinale ([2]; drug with Carum carvi bioenhancer and Zingiber officinale 35 mg/kg, drug dose as in row): 140%; % Enhancement in bioavailability, Carum carvi + Piperine ([2]; drug with Carum carvi bioenhancer and piperine 8 mg/kg, drug dose as in row): 170%; % Enhancement in bioavailability, BE from Zingiber officinale ([2]; drug with Zingiber officinale 50% alcoholic extract of fresh ginger 35 mg/kg, drug dose as in row): 65%; % Enhancement in bioavailability, Piperine as BE ([2]; drug with piperine 8 mg/kg, drug dose as in row): 45%; bioenhancing effect of piperine on the drug [1]: highly significant"
[Se] [Selenium],nil,nil,Nil,nil,Nil,Nil,–,–,–,–
CC[C@H]1OC(=O)[C@H](C)[C@@H](O[C@H]2C[C@@](C)(OC)[C@@H](O)[C@H](C)O2)[C@H](C)[C@@H](O[C@@H]2O[C@H](C)C[C@H](N(C)C)[C@H]2O)[C@](C)(O)C[C@@H](C)/C(=N\OCOCCOC)[C@H](C)[C@@H](O)[C@]1(C)O [Roxythromycin],–,–,–,–,–,72%,65%,95%,98%,–
NCCCC[C@H](N)C(=O)O [Lysine],39%,43%,33%,38%,26%,19%,–,–,–,–
NCC[C@H](O)C(=O)N[C@@H]1C[C@H](N)[C@@H](O[C@H]2O[C@H](CN)[C@@H](O)[C@H](O)[C@H]2O)[C@H](O)[C@H]1O[C@H]1O[C@H](CO)[C@@H](O)[C@H](N)[C@H]1O [Amikacin],–,–,–,–,–,Nil,85%,100%,92%,–
COc1cc(/C=C/C(=O)CC(=O)/C=C/c2ccc(O)c(OC)c2)ccc1O [Curcumin],43%,52%,42%,51%,40%,49%,–,–,–,–
CCOC(=O)C1=C(COCCN)NC(C)=C(C(=O)OC)C1c1ccccc1Cl (stereo not shown) [Amlodipine],–,–,–,–,–,68%,–,50%,65%,"% Enhancement in bioavailability, BE from Carum carvi [2]: Nil"
[Cu] [Copper],Nil,Nil,nil,Nil,nil,nil,–,–,–,–
CNC(=C[N+](=O)[O-])NCCSCc1ccc(CN(C)C)o1 [Ranitidine],–,–,–,–,–,147%,67%,70%,150%,–
C[C@@H]1O[C@@H](OC[C@H]2O[C@@H](Oc3c(-c4ccc(O)c(O)c4)oc4cc(O)cc(O)c4c3=O)[C@H](O)[C@@H](O)[C@@H]2O)[C@H](O)[C@H](O)[C@H]1O [Rutin],34%,42%,36%,40%,34%,42%,–,–,–,–
NNC(=O)c1ccncc1 [Isoniazid],–,–,–,–,–,Nil,Nil,nil,nil,bioenhancing effect of piperine on the drug [1]: nil or marginal
CCn1cc(C(=O)O)c(=O)c2cc(F)c(N3CCNCC3)cc21 [Norfloxacin],–,–,–,–,–,Nil,55%,65%,60%,–
O=C(O)Cc1ccccc1Nc1c(Cl)cccc1Cl [Diclofenac],–,–,–,–,–,90%,Nil,100%,95%,–

# Further lines, with some results ahead:
"% Enhancement in bioavailability, Carum carvi + Zingiber officinale, Extr. (Cc) [3]","% Enhancement in bioavailability, Carum carvi + Zingiber officinale, Frac 1. (Cc) [3]","% Enhancement in bioavailability, Carum carvi + piperine, Extr. (Cc) [3]","% Enhancement in bioavailability, Carum carvi + piperine, Frac 1. (Cc) [3]","% Enhancement in bioavailability, Carum carvi (Cc) Extr. [3]","% Enhancement in bioavailability, BE from Zingiber officinale [3]","% Enhancement in bioavailability, BE from Carum carvi [3]","% Enhancement in bioavailability, Carum carvi + Piperine [3]","% Enhancement in bioavailability, Carum carvi + Zingiber officinale [3]",Compound,other results
–,–,–,–,–,82%,78%,100%,90%,Nc1nc2c(ncn2COCCO)c(=O)[nH]1 [Acyclovir],–
20%,27%,13%,16%,17%,Nil,–,–,–,Vitamin A,–
–,–,–,–,–,Nil,45%,50%,55%,NC(=O)c1cnccn1 [Pyrazinamide],bioenhancing effect of piperine on the drug [1]: nil or marginal
32%,38%,22%,29%,16%,21%,–,–,–,CC(C)[C@H](N)C(=O)O [Valine],–
35%,40%,29%,32%,19%,24%,–,–,–,CC(C)C[C@H](N)C(=O)O [Leucine],–
–,–,–,–,–,71%,70%,80%,75%,N[C@@H]1CON=C1O [Cycloserine],–
